From US20220347194A1, “METHODS AND COMPOSITIONS FOR TREATING PAIN AND OTHER EPH RECEPTOR-ASSOCIATED CONDITIONS” (THE BOARD OF REGENTS OF THE UNIVERSITY OF TEXAS SYSTEM, priority 2019, published 2022)

Legend:
[1] = test system: Capsaicin Induced pain model; assay: Capsaicin Induced pain model (Hargreaves and Von Frey tests); format: in vivo, CD1 mice; details: capsaicin-injected paw vs controls; Demeclocycline 17 mg/kg/day, DC 7 mg/kg/day, MCD 5 mg/kg/day, p.o
Description: (§1) Animals. A total of 40 male outbred CD1 mice were obtained from Charles River Laboratories at 8 weeks of age. Mice were housed in the animal facility of UT southwestern Medical Center, with constant temperature (21-24° C.) and humidity (30-50%) with free access to standard animal feed and water. The room was kept on a 12/12 light/dark cycle, with white light (light cycle) on at 2400 hours and red lights (dark cycle) on at 1200 hours. All of the procedures were conducted with approval from the UT southwestern Medical Center Institutional Animal Care and Use Committee (IACUC Protocol No. 2017-102090). Ugo Basile® the original Plantar Test (Hargreaves Apparatus) was used for thermal stimulation, where infrared beam was adjusted to give an average paw withdrawal latency of about 10 s in wild type mice and cut-off time was set to 30 s to avoid tissue damage. Ugo Basile® Dynamic Plantar Aesthesiometer (DPA) for mechanical stimulation (Electronic Von Frey) were used for mechanical stimulation, where the force (grams) was set at 50 g to prevent tissue damage. Animals were placed in clear acrylic cubicles (22×16.5×14 cm) for at least one hour prior testing. The testing/recording was done every 5 minutes with no repetition for the same mouse. Blinded person(s) to the individual treatment assignments recorded true reflexes.
Capsaicin Induced pain model. […]

[2] = test system: Complete freund's adjuvant (CFA) Induced pain model; assay: Complete freund's adjuvant (CFA) Induced pain model (Hargreaves and Von Frey tests); format: in vivo, CD1 mice
Description: as §1
Complete freund's adjuvant (CFA) Induced pain model. […] A baseline was for detected for the mice behavior towards thermal hyperalgesia using Hargreaves Test and mechanical allodynia using Von Frey Test. The drugs were administered via gavage for three consecutive days before CFA injection. On the morning of the experiment (6 hours before CFA injection), the last dose of drugs was administered. CFA was injected in the right paw, while the left paw remained un-injected as control. The testing involved two stimulus thermal hyperalgesia using Hargreaves Test and mechanical allodynia using Von Frey Test at Days 1, 2, 3, and 5.

[3] = test system: Human glioblastoma (GBM) cells; assay: Glioblastoma cell migration; format: cell-based; details: 12.5, 25, 50, and 100 μM; after 24 hours
Description: Cell migration was tested after 24 hours.

EphB1 kinase domain = target: T1, EphB1 kinase domain (Homo sapiens, UniProt P54762); assay: Radiometric protein kinase assay (33PanQinase Activity Assay), EphB1; details: for inhibition of EphB1 kinase activity: concentrations up to 100 μM
T1 sequence (P54762 619-882 limits assumed): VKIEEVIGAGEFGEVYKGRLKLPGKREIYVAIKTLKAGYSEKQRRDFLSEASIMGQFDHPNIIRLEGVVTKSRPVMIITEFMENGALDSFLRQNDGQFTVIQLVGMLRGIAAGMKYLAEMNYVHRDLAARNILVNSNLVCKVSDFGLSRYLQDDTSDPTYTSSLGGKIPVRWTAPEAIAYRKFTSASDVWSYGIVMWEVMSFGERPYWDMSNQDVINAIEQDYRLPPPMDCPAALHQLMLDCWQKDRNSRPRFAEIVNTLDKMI
Description: (§2) Kinase domains were produced by ProQinase using human cDNAs to express recombinant GST/His-fusion proteins that were purified by affinity chromatography and determined to be enzymatically active by phosphorylation of a Poly (Glu, Tyr) substrate. The FDA compounds were assayed in 10 concentrations in the range from 1×10^−4 M to 3×10^−9 M for their ability to effect kinase activities. The final DMSO concentration in the reaction cocktails was 1% in all cases. Kinase assays were performed in 96-well FlashPlates™ from PerkinElmer (Boston, Mass., USA) in a 50 μl reaction volume. The reaction cocktail was pipetted in four steps in the following order: 20 μl of assay buffer (standard buffer), 5 μl of ATP solution (in H2O), 5 μl of test compound (in 10% DMSO), and 20 μl enzyme/substrate mix. […] The reaction cocktails were incubated at 30° C. for 60 minutes. The reaction was stopped with 50 μl of 2% (v/v) H3PO4, plates were aspirated and washed two times with 200 μl 0.9% (w/v) NaCl. Incorporation of ^33Pi was determined with a microplate scintillation counter (Microbeta, Wallac). All assays were performed with a BeckmanCoulter/SAGIAN™ Core System. The median value of the counts in column 1 (n=8) of each assay plate was defined as “low control”. This value reflects unspecific binding of radioactivity to the plate in the absence of a protein kinase but in the presence of the substrate. The median value of the counts in column 7 of each assay plate (n=8) was taken as the “high control”, i.e. full activity in the absence of any inhibitor. The difference between high and low control was taken as 100% activity. As part of the data evaluation the low control value from a particular plate was subtracted from the high control value as well as from all 80 “compound values” of the corresponding plate. The residual activity (in %) for each well of a particular plate was calculated by using the following formula: Res. Activity (%)=100×[(cpm of compound−low control)/(high control−low control)]
(§3) The fitting method used was a least-squares fit.
For each kinase, the median value of the cpm of three wells with complete reaction cocktails, but without kinase, was defined as “low control” (n=3). This value reflects unspecific binding of radioactivity to the plate in the absence of protein kinase but in the presence of the substrate. Additionally, for each kinase the median value of the cpm of three other wells with the complete reaction cocktail, but without any compound, was taken as the “high control”, i.e. full activity in the absence of any inhibitor (n=3). The difference between high and low control was taken as 100% activity for each kinase. As part of the data evaluation the low control of each row of a particular plate was subtracted from the high control value as well as from their corresponding “compound values”. The residual activity (in %) for each well of each row of a particular plate was calculated by using the following formula: Res. Activity (%)=100×[(cpm of compound−low control)/(high control−low control)]. […] The mathematical model used was “Sigmoidal response (variable slope)” with parameters “top” fixed at 100% and “bottom” at 0%.

EphB2 kinase domain = target: T2, EphB2 kinase domain (Homo sapiens, UniProt P29323); assay: Radiometric protein kinase assay (33PanQinase Activity Assay), EphB2
T2 sequence (P29323 621-884 limits assumed): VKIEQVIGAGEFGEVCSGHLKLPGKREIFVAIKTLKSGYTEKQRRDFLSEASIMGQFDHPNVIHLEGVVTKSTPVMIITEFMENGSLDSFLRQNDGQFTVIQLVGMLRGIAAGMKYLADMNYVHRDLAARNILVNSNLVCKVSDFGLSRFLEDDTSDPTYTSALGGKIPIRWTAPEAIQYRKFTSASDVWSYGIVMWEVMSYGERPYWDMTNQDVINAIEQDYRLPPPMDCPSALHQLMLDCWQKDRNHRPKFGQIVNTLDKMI
Description: (§4) Kinase domains were produced by ProQinase using human cDNAs to express recombinant GST/His-fusion proteins that were purified by affinity chromatography and determined to be enzymatically active by phosphorylation of a Poly (Glu, Tyr) substrate. The FDA compounds were assayed in 10 concentrations in the range from 1×10^−4 M to 3×10^−9 M for their ability to effect kinase activities. The final DMSO concentration in the reaction cocktails was 1% in all cases. Kinase assays were performed in 96-well FlashPlates™ from PerkinElmer (Boston, Mass., USA) in a 50 μl reaction volume. The reaction cocktail was pipetted in four steps in the following order: 20 μl of assay buffer (standard buffer), 5 μl of ATP solution (in H2O), 5 μl of test compound (in 10% DMSO), and 20 μl enzyme/substrate mix. […] The reaction cocktails were incubated at 30° C. for 60 minutes. The reaction was stopped with 50 μl of 2% (v/v) H3PO4, plates were aspirated and washed two times with 200 μl 0.9% (w/v) NaCl. Incorporation of ^33Pi was determined with a microplate scintillation counter (Microbeta, Wallac). All assays were performed with a BeckmanCoulter/SAGIAN™ Core System. The median value of the counts in column 1 (n=8) of each assay plate was defined as “low control”. This value reflects unspecific binding of radioactivity to the plate in the absence of a protein kinase but in the presence of the substrate. […] The residual activity (in %) for each well of a particular plate was calculated by using the following formula: Res. Activity (%)=100×[(cpm of compound−low control)/(high control−low control)] […]
(§5) For each kinase, the median value of the cpm of three wells with complete reaction cocktails, but without kinase, was defined as “low control” (n=3). This value reflects unspecific binding of radioactivity to the plate in the absence of protein kinase but in the presence of the substrate. […] The residual activity (in %) for each well of each row of a particular plate was calculated by using the following formula: Res. Activity (%)=100×[(cpm of compound−low control)/(high control−low control)]. […]

EphB3 kinase domain = target: T3, EphB3 kinase domain (Homo sapiens, UniProt P54753); assay: Radiometric protein kinase assay (33PanQinase Activity Assay), EphB3
T3 sequence (P54753 633-896 limits assumed): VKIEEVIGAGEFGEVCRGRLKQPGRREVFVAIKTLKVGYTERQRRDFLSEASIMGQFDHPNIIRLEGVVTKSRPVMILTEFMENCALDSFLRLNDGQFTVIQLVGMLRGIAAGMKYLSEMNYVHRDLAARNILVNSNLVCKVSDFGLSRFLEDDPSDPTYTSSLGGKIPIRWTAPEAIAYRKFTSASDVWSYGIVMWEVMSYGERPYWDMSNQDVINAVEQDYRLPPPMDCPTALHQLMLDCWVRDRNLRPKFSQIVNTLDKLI
Description: as §2, §3
For each kinase, the median value of the cpm of three wells with complete reaction cocktails, but without kinase, was defined as “low control” (n=3). This value reflects unspecific binding of radioactivity to the plate in the absence of protein kinase but in the presence of the substrate. Additionally, for each kinase the median value of the cpm of three other wells with the complete reaction cocktail, but without any compound, was taken as the “high control”, i.e. full activity in the absence of any inhibitor (n=3). […] The residual activity (in %) for each well of each row of a particular plate was calculated by using the following formula: Res. Activity (%)=100×[(cpm of compound−low control)/(high control−low control)]. […]

EphB4 kinase domain = target: T4, EphB4 kinase domain (Homo sapiens, UniProt P54760); assay: Radiometric protein kinase assay (33PanQinase Activity Assay), EphB4
T4 sequence (P54760 615-899 limits assumed): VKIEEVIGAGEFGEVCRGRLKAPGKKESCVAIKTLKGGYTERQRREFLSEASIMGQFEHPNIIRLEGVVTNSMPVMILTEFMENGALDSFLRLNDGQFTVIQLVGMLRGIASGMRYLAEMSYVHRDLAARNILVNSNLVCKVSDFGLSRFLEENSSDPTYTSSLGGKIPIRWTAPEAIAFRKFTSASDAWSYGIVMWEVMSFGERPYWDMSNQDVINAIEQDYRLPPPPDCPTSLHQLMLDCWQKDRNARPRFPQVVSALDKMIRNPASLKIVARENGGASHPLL
Description: as §4, §5

[4] = tested at Days 1, 2, 3, and 5, P<0.001

IC50 (EphB1 kinase domain) [µM] | IC50 (EphB2 kinase domain) [µM] | IC50 (EphB3 kinase domain) [µM] | IC50 (EphB4 kinase domain) [µM] | inhibition of EphB1 kinase activity (EphB1 kinase domain) | Compound | further results
39 | 37 to 92 | 47 | 37 to 92 | – | CN(C)[C@@H]1C(O)=C(C(N)=O)C(=O)[C@@]2(O)C(O)=C3C(=O)c4c(O)ccc(Cl)c4[C@@H](O)[C@H]3C[C@@H]12 [Demeclocycline, demeclocycline] | paw withdrawal latency, thermal stimulus (Hargreaves) [1]: prolonged the paw withdrawal latency; response to mechanical stimulus (von Frey) [1]: same behavior was observed; paw withdrawal latency, thermal stimulus (Hargreaves) ([2]; injected paw vs controls, p.o): prolonged the paw withdrawal latency; response to mechanical stimulus (von Frey) ([2]; injected paw vs controls, p.o): same behavior was observed; time until which significant improvement for mechanical (tactile) allodynia was shown [2, 4]: 1 days; time until which significant improvement in paw withdrawal latency for thermal hyperalgesia was shown [2, 4]: ≤ 2 days; glioblastoma cell migration [3]: inhibited glioblastoma cell migration; influence on EphB3 catalytic activity (EphB3 kinase domain; low nanomolar ranges (biphasic)): slightly elevated activity
44 | 37 to 92 | 55 | 37 to 92 | – | CN(C)[C@@H]1C(O)=C(C(N)=O)C(=O)[C@@]2(O)C(O)=C3C(=O)c4c(O)ccc(Cl)c4[C@@](C)(O)[C@H]3C[C@@H]12 [chlortetracycline] | –
– | – | – | – | failed to inhibit | NC(=O)C(c1ccccc1)(c1ccccc1)[C@@H]1CCN(CCc2ccc3c(c2)CCO3)C1 [darifenacin] | –
56 | 37 to 92 | 92 | 37 to 92 | – | CN(C)c1ccc(O)c2c1C[C@H]1C[C@H]3[C@H](N(C)C)C(O)=C(C(N)=O)C(=O)[C@@]3(O)C(O)=C1C2=O [minocycline] | –
– | – | – | – | failed to inhibit | CCC(=O)NCC[C@@H]1CCc2ccc3c(c21)CCO3 [ramelteon] | –
